Assay results: US20230085307A1, “PYRIDAZINONE COMPOUND AND HERBICIDE” (NISSAN CHEMICAL CORPORATION, priority 2019, published 2023)

Legend:
[1] = tested on: Japanese bulrush; assay: Test Example 2: herbicidal activity, application during weed generation under submerged conditions (Table 17, symbol B); assay type: in vivo, Japanese bulrush (Schoenoplectus juncoides); conditions: AAH 320 g/ha; application during weed generation, submerged conditions
Method in brief: (§1)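 Effect on each weed is rated three weeks post-treatment, using the same scoring criteria as the preceding test. Plants grow from mixed-sown seed in flooded alluvial soil (4 cm water) at 25° C. to 30° C., and are treated at one to two leaves with diluted emulsion dropped onto the water.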

[2] = tested on: persian speedwell; assay: Test Example 4: herbicidal effect by soil treatment (Table 19, symbol R); assay type: in vivo, Persian speedwell (Veronica persica); conditions: amount of applied herbicide 320 g/ha
Method in brief: (§2)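 Seeds were sown in sterilized diluvial soil and covered with about 1.5 cm of soil. An emulsion formulation diluted with water to a predetermined herbicide amount was sprayed evenly onto the soil surface. Plants grew in a greenhouse at 25° C. to 30° C., and the effect was scored three weeks after application using criteria from an earlier test.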

[3] = tested on: Italian ryegrass; assay: Test Example 4: herbicidal effect by soil treatment (Table 19, symbol K); assay type: in vivo, Italian ryegrass (Lolium multiflorum); conditions: amount of applied herbicide 320 g/ha
Method in brief: as §2

[4] = tested on: windgrass; assay: Test Example 4: herbicidal effect by soil treatment (Table 19, symbol L); assay type: in vivo, windgrass (Apera spica-venti); conditions: amount of applied herbicide 320 g/ha
Method in brief: as §2

[5] = tested on: southern crabgrass; assay: Test Example 5: herbicidal effect by foliage application, plastic box (Table 20, symbol F); assay type: in vivo, southern crabgrass (Digitaria ciliaris); conditions: foliage application, AAH 320 g/ha, evaluated three weeks after application
Method in brief: (§3)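 Plants sown in sterilized diluvial soil and grown 14 days in a greenhouse at 25° C to 30° C, then sprayed on the foliage with the compound's emulsion diluted in water to a predetermined herbicide amount. Injury to weeds and crops scored three weeks after application on a visual rating scale.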

[6] = tested on: oval-leafed pondweed; assay: Test Example 1: herbicidal activity, application before weed generation under submerged conditions (Table 16, symbol C); assay type: in vivo, oval-leafed pondweed (Monochoria vaginalis); conditions: 320 g/ha applied herbicide
Method in brief: (§4)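 Submerged Wagner pots (alluvial soil, 4 cm water) sown with weed seeds and planted with 2.5-leaf rice seedlings; emulsifiable concentrate diluted in water applied to water surface on sowing day. Held in greenhouse at 25-30 °C; injury scored 0-5 by herbicidal rate after three weeks.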

[7] = tested on: lambsquarters; assay: Test Example 5: herbicidal effect by foliage application, plastic box (Table 20, symbol O); assay type: in vivo, lambsquarters (Chenopodium album); conditions: foliage application, AAH 320 g/ha, evaluated three weeks after application
Method in brief: as §3

[8] = tested on: Japanese bulrush; assay: Test Example 1: herbicidal activity, application before weed generation under submerged conditions (Table 16, symbol B); assay type: in vivo, Japanese bulrush (Schoenoplectus juncoides); conditions: 320 g/ha applied herbicide
Method in brief: as §4

[9] = tested on: green foxtail; assay: Test Example 5: herbicidal effect by foliage application, plastic box (Table 20, symbol G); assay type: in vivo, green foxtail (Setaria viridis); conditions: foliage application, AAH 320 g/ha, evaluated three weeks after application
Method in brief: as §3

[10] = tested on: oval-leafed pondweed; assay: Test Example 2: herbicidal activity, application during weed generation under submerged conditions (Table 17, symbol C); assay type: in vivo, oval-leafed pondweed (Monochoria vaginalis); conditions: AAH 320 g/ha; application during weed generation, submerged conditions
Method in brief: as §1

[11] = tested on: windgrass; assay: Test Example 5: herbicidal effect by foliage application, plastic box (Table 20, symbol L); assay type: in vivo, windgrass (Apera spica-venti); conditions: foliage application, AAH 320 g/ha, evaluated three weeks after application
Method in brief: as §3

[12] = tested on: velvetleaf; assay: Test Example 4: herbicidal effect by soil treatment (Table 19, symbol M); assay type: in vivo, velvetleaf (Abutilon theophrasti); conditions: amount of applied herbicide 320 g/ha
Method in brief: as §2

[13] = tested on: green foxtail; assay: Test Example 4: herbicidal effect by soil treatment (Table 19, symbol G); assay type: in vivo, green foxtail (Setaria viridis); conditions: amount of applied herbicide 320 g/ha
Method in brief: as §2

[14] = tested on: wild oat; assay: Test Example 4: herbicidal effect by soil treatment (Table 19, symbol I); assay type: in vivo, wild oat (Avena fatua); conditions: amount of applied herbicide 320 g/ha
Method in brief: as §2

[15] = tested on: chickweed; assay: Test Example 5: herbicidal effect by foliage application, plastic box (Table 20, symbol P); assay type: in vivo, common chickweed (Stellaria media); conditions: foliage application, AAH 320 g/ha, evaluated three weeks after application
Method in brief: as §3

[16] = tested on: rice flat sedge; assay: Test Example 3: herbicidal effect by foliage application, Wagner pot (Table 18, symbol E); assay type: in vivo, rice flat sedge (Cyperus iria); conditions: amount of applied herbicide 320 g/ha
Method in brief: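 Plants were sown in alluvial soil held under 0.1–0.5 cm standing water and grown 14 days in a greenhouse at 25–30 °C. An emulsifiable formulation, water-diluted to the set dose, was then sprayed onto the foliage, and effects were scored three weeks later using previously defined criteria.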

| SMILES | herbicidal effect rating, B: Japanese bulrush [1] | herbicidal effect on R: persian speedwell [2] | herbicidal effect on K: Italian ryegrass [3] | herbicidal effect on L: windgrass [4] | F: southern crabgrass, herbicidal effect (criteria 0-5) [5] | Herbicidal effect on C: oval-leafed pondweed (grade 0-5) [6] | O: lambsquarters, herbicidal effect (criteria 0-5) [7] | Herbicidal effect on B: Japanese bulrush (grade 0-5) [8] | G: green foxtail, herbicidal effect (criteria 0-5) [9] | herbicidal effect rating, C: oval-leafed pondweed [10] | L: windgrass, herbicidal effect (criteria 0-5) [11] | herbicidal effect on M: velvetleaf [12] | herbicidal effect on G: green foxtail [13] | herbicidal effect on I: wild oat [14] | P: chickweed, herbicidal effect (criteria 0-5) [15] | herbicidal effect on E: rice flat sedge [16] |
| --- | --- | --- | --- | --- | --- | --- | --- | --- | --- | --- | --- | --- | --- | --- | --- | --- |
| Cc1nn(C)c(=O)c(-c2c(-c3ccc(OC(F)F)cc3)sc3ccc(F)cc23)c1OC(=S)Sc1ccccc1 [2-298] | 3 (Herbicidal rate of 40% or more and less than 70%) | 1 (Herbicidal rate of 5% or more and less than 20%) | 0 (Herbicidal rate of 5% or less (almost no effect)) | 0 (Herbicidal rate of 5% or less (almost no effect)) | 3 (Herbicidal rate of 40% or more and less than 70%) | 3 (Herbicidal rate of 40% or more and less than 70%) | 5 (Herbicidal rate of 90% or more (almost completely withered)) | 3 (Herbicidal rate of 40% or more and less than 70%) | 5 (Herbicidal rate of 90% or more (almost completely withered)) | 0 (Herbicidal rate of 5% or less (almost no effect)) | 0 (Herbicidal rate of 5% or less (almost no effect)) | 2 (Herbicidal rate of 20% or more and less than 40%) | 0 (Herbicidal rate of 5% or less (almost no effect)) | 0 (Herbicidal rate of 5% or less (almost no effect)) | 5 (Herbicidal rate of 90% or more (almost completely withered)) | 5 (Herbicidal rate of 90% or more (almost completely withered)) |
| Cc1nn(C)c(=O)c(-c2c(-c3ccc(OC(F)F)cc3)sc3ccc(F)cc23)c1OCC(=O)c1ccccc1 [2-305] | 3 (Herbicidal rate of 40% or more and less than 70%) | 3 (Herbicidal rate of 40% or more and less than 70%) | 0 (Herbicidal rate of 5% or less (almost no effect)) | 0 (Herbicidal rate of 5% or less (almost no effect)) | 1 (Herbicidal rate of 5% or more and less than 20%) | 2 (Herbicidal rate of 20% or more and less than 40%) | 5 (Herbicidal rate of 90% or more (almost completely withered)) | 5 (Herbicidal rate of 90% or more (almost completely withered)) | 5 (Herbicidal rate of 90% or more (almost completely withered)) | 0 (Herbicidal rate of 5% or less (almost no effect)) | 1 (Herbicidal rate of 5% or more and less than 20%) | 1 (Herbicidal rate of 5% or more and less than 20%) | 0 (Herbicidal rate of 5% or less (almost no effect)) | 0 (Herbicidal rate of 5% or less (almost no effect)) | 5 (Herbicidal rate of 90% or more (almost completely withered)) | 3 (Herbicidal rate of 40% or more and less than 70%) |
